Results on 28 compounds are retold here after patent US10189838B2, “Aza-oxo-indoles for the treatment and prophylaxis of respiratory syncytial virus infection” (Hoffmann-La Roche Inc., priority 2013, dated 2019).

SMILES strings stand for the structures.

The assay deals with RSV Long strain. Nature of the assay: Viral cytopathic effect (CPE) assay, RSV Long strain. The assay is classed as cell-based, Respiratory Syncytial Virus. The following applies: human respiratory syncytial virus, 144 h, cell viability after 6 days (Cell Counting kit-8). The method, then:
EC50: the concentration of a compound where 50% of its maximal protection effect against viral induced CPE is observed
LongStrain: an A subtype RSV strain obtained from ATCC with catalog number VR-26
To measure anti-RSV activity of compounds, 96-well plates are seeded with 6×10^3 cells per well in Dulbecco's modified Eagle's medium (DMEM) containing 10% fetal bovine serum (FBS). Cells are infected the next day with sufficient RSV Long strain (ATCC) to produce an approximately 80-90% cytopathic effect after 6 days, in the presence of serial half-log diluted compound in a total volume of […] per well. The viability of cells is assessed after 6 days using Cell Counting kit-8 (Dojindo Molecular Technologies). The absorbance at 450 nm and referenced at 630 nm is measured to determine 50% effective concentration (EC50)

On to `NC(=O)CCn1c(CN2C(=O)C3(CC3)c3ccncc32)cc2cc(Cl)ccc21` [Example 18-1, 3-{5-Chloro-2-[(2′-oxospiro[cyclopropane-1,3′-pyrrolo[2,3-c]pyridin]-1′(2′H)-yl)methyl]-1H-indol-1-yl}propanamide], for which a half-maximal effect (EC50) was put at 17 nM.

In the case of `O=C(CCn1c(CN2C(=O)C3(CC3)c3ccncc32)cc2cc(Cl)ccc21)NS(=O)(=O)C1CC1` [Example 19-1, 3-{5-Chloro-2-[(2′-oxospiro[cyclopropane-1,3′-pyrrolo[2,3-c]pyridin]-1′(2′H)-yl)methyl]-1H-indol-1-yl}-N-(cyclopropylsulfonyl)propanamide], the EC50 (as a rule, the concentration giving half of the maximal effect) came to 1180 nM.

The compound `CS(=O)(=O)CCn1c(CN2C(=O)C3(CC3)c3ccncc32)nc2cc(Cl)cc(Cl)c21` [Example 37-2, 1′-({5,7-Dichloro-1-[2-(methylsulfonyl)ethyl]-1H-benzimidazol-2-yl}methyl)spiro[cyclopropane-1,3′-pyrrolo[2,3-c]pyridin]-2′(1′H)-one] showed an EC50 of 16.8 nM.

Compound `CS(=O)(=O)CCn1c(CN2C(=O)C3(CC3)c3ccncc32)cc2cc(C#N)ccc21` [Example 1-3, 1-[2-(Methylsulfonyl)ethyl]-2-[(2′-oxospiro[cyclopropane-1,3′-pyrrolo[2,3-c]pyridin]-1′(2′H)-yl)methyl]-1H-indole-5-carbonitrile] came in with an EC50 of 938 nM.

The compound `NC1(Cn2c(CN3C(=O)C4(CC4)c4ccncc43)nc3cc(Cl)ccc32)COC1` [Example 39-1, 1′-({1-[(3-Aminooxetan-3-yl)methyl]-5-chloro-1H-benzimidazol-2-yl}methyl)spiro[cyclopropane-1,3′-pyrrolo[2,3-c]pyridin]-2′(1′H)-one] displayed an EC50 of 18 nM.

For `CCOC(=O)CCn1c(CN2C(=O)C3(CC3)c3ccncc32)cc2cc(Cl)cc(F)c21` [Example 13, Ethyl 3-{5-chloro-7-fluoro-2-[(2′-oxospiro[cyclopropane-1,3′-pyrrolo[2,3-c]pyridin]-1′(2′H)-yl)methyl]-1H-indol-1-yl}propanoate], the midpoint of the response, the EC50, lay at 18 nM.

Consider `CS(=O)(=O)CCn1c(CN2C(=O)C3(CC3)c3c(Br)cccc32)nc2cc(Cl)ccc21` [Example 34-4, 4′-Bromo-1′-({5-chloro-1-[2-(methylsulfonyl)ethyl]-1H-benzimidazol-2-yl}methyl)spiro[cyclopropane-1,3′-indol]-2′(1′H)-one], for which the concentration for a half-maximal effect (EC50) is 205 nM.

`CNS(=O)(=O)CCCn1c(CN2C(=O)C3(CC3)c3ccncc32)cc2cc(Cl)cnc21` [Example 25-1, 3-{5-Chloro-2-[(2′-oxospiro[cyclopropane-1,3′-pyrrolo[2,3-c]pyridin]-1′(2′H)-yl)methyl]-1H-pyrrolo[2,3-b]pyridin-1-yl}-N-methylpropane-1-sulfonamide] displayed an EC50 of 57 nM.

For the compound `O=C1N(Cc2cc3cc(Cl)ccc3n2CCN2CCCS2(=O)=O)c2cnccc2C12CC2` [Example 7-7, 1′-({5-Chloro-1-[2-(1,1-dioxido-1,2-thiazolidin-2-yl)ethyl]-1H-indol-2-yl}methyl)spiro[cyclopropane-1,3′-pyrrolo[2,3-c]pyridin]-2′(1′H)-one], a half-maximal effect (EC50) was put at 35 nM.

In turn, `CS(=N)(=O)CCCCn1c(CN2C(=O)C3(CC3)c3ccncc32)cc2cc(Cl)cnc21` (stereo not shown) [Example 14-3, 1′-({5-Chloro-1-[4-(S-methylsulfonimidoyl)butyl]-1H-pyrrolo[2,3-b]pyridin-2-yl}methyl)spiro[cyclopropane-1,3′-pyrrolo[2,3-c]pyridin]-2′(1′H)-one] returned a concentration giving a half-maximal response (EC50) of 74 nM.

`COC(=O)NCCCn1c(CN2C(=O)C3(CC3)c3ccncc32)cc2cc(Cl)ccc21` [Example 30, Methyl(3-{5-chloro-2-[(2′-oxospiro[cyclopropane-1,3′-pyrrolo[2,3-c]pyridin]-1′(2′H)-yl)methyl]-1H-indol-1-yl}propyl)carbamate] registered an EC50 of 20 nM.

`CS(=O)(=O)CCn1c(CN2C(=O)C3(CC3)c3cc(F)ccc32)cc2cc(Cl)cnc21` [Example 2-7, 1′-({5-Chloro-1-[2-(methylsulfonyl)ethyl]-1H-pyrrolo[2,3-b]pyridin-2-yl}methyl)-5′-fluorospiro[cyclopropane-1,3′-indol]-2′(1′H)-one]: a half-maximal effect (EC50) was put at 750 nM.

Regarding `CN(C)S(=O)(=O)CCn1c(CN2C(=O)C3(CC3)c3ccncc32)cc2cc(Cl)ccc21` [Example 7-3, 2-{5-Chloro-2-[(2′-oxospiro[cyclopropane-1,3′-pyrrolo[2,3-c]pyridin]-1′(2′H)-yl)methyl]-1H-indol-1-yl}-N,N-dimethylethanesulfonamide], it took 23 nM to reach a half-maximal effect (EC50).

Regarding `CC(=O)NCCn1c(CN2C(=O)C3(CC3)c3ccncc32)cc2cc(Cl)ccc21` [Example 26-3, N-(2-{5-Chloro-2-[(2′-oxospiro[cyclopropane-1,3′-pyrrolo[2,3-c]pyridin]-1′(2′H)-yl)methyl]-1H-indol-1-yl}ethyl)acetamide], the EC50 turned out to be 25 nM.

Consider `O=C1N(Cc2cc3cc(Cl)ccc3n2CCCS(=O)(=O)N2CCCC2)c2cnccc2C12CC2` [Example 7-5, 1′-({5-Chloro-1-[3-(pyrrolidin-1-ylsulfonyl)propyl]-1H-indol-2-yl}methyl)spiro[cyclopropane-1,3′-pyrrolo[2,3-c]pyridin]-2′(1′H)-one], for which the EC50 came to 20 nM.

`CS(=O)(=O)CCCn1c(CN2C(=O)C3(CC3)c3ccncc32)cc2cc(Cl)ncc21` [Example 4-13, 1′-({5-Chloro-1-[3-(methylsulfonyl)propyl]-1H-pyrrolo[2,3-c]pyridin-2-yl}methyl)spiro[cyclopropane-1,3′-pyrrolo[2,3-c]pyridin]-2′(1′H)-one] registered an EC50 of 26 nM.

Turning to `NC(=O)CCn1c(CN2C(=O)C3(CC3)c3cccnc32)cc2cc(Cl)ccc21` [Example 18-2, 3-{5-Chloro-2-[(2′-oxospiro[cyclopropane-1,3′-pyrrolo[2,3-b]pyridin]-1′(2′H)-yl)methyl]-1H-indol-1-yl}propanamide], the response was half-maximal at 711 nM (EC50).

As for `[2H]C([2H])(c1cc2cc(Cl)ccc2n1CCCS(C)(=O)=O)N1C(=O)C2(CC2)c2ccncc21` [Example 10, 1′[{-5-Chloro-1-[3-(methylsulfonyl)propyl]-1H-indol-2-yl}(^2H2)methyl]spiro[cyclopropane-1,3′-pyrrolo[2,3-c]pyridin]-2′(1′H)-one], the EC50 is 19 nM.

Regarding `O=C1N(Cc2cc3cc(Cl)ccc3n2CCCCN2CCCS2(=O)=O)c2cnccc2C12CC2` [Example 7-8, 1′-({5-Chloro-1-[4-(1,1-dioxido-1,2-thiazolidin-2-yl)butyl]-1H-indol-2-yl}methyl)spiro[cyclopropane-1,3′-pyrrolo[2,3-c]pyridin]-2′(1′H)-one], the EC50 was 18 nM.

In turn, `CS(=O)(=O)CCCn1c(CN2C(=O)C3(CC3)c3ccncc32)cc2nc(Cl)ccc21` [Example 4-15, 1′-({5-Chloro-1-[3-(methylsulfonyl)propyl]-1H-pyrrolo[3,2-b]pyridin-2-yl}methyl)spiro[cyclopropane-1,3′-pyrrolo[2,3-c]pyridin]-2′(1′H)-one] displayed an EC50 of 18 nM.

`CN(C)S(=O)(=O)CCCn1c(CN2C(=O)C3(CC3)c3ccncc32)cc2cc(Cl)ccc21` [Example 7-1, 3-{5-Chloro-2-[(2′-oxospiro[cyclopropane-1,3′-pyrrolo[2,3-c]pyridin]-1′(2′H)-yl)methyl]-1H-indol-1-yl}-N,N-dimethylpropane-1-sulfonamide] registered an EC50 of 7 nM.

As to `O=C1N(Cc2cc3cc(Cl)ccc3n2CCN2CCNCC2)c2cnccc2C12CC2` [Example 24-1, 1′-({5-Chloro-1-[2-(piperazin-1-yl)ethyl]-1H-indol-2-yl}methyl)spiro[cyclopropane-1,3′-pyrrolo[2,3-c]pyridin]-2′(1′H)-one], it took 68 nM to reach a half-maximal effect (EC50).

For the compound `CS(=O)(=O)CCCn1c(CN2C(=O)C3(CC3)c3ccncc32)cc2cc(Cl)cnc21` [Example 4-3, 1′-({5-Chloro-1-[3-(methylsulfonyl)propyl]-1H-pyrrolo[2,3-b]pyridin-2-yl}methyl)spiro[cyclopropane-1,3′-pyrrolo[2,3-c]pyridin]-2′(1′H)-one], the response was half-maximal at 37.9 nM (EC50).

In the case of `CCS(=O)(=O)CCCn1c(CN2C(=O)C3(CC3)c3ccncc32)cc2cc(Cl)cnc21` [Example 23, 1′-({5-Chloro-1-[3-(ethylsulfonyl)propyl]-1H-pyrrolo[2,3-b]pyridin-2-yl}methyl)spiro[cyclopropane-1,3′-pyrrolo[2,3-c]pyridin]-2′(1′H)-one], a half-maximal effect (EC50) was put at 63 nM.

The compound `CCS(=O)(=O)CCCn1c(CN2C(=O)C3(CC3)c3ccncc32)cc2cc(Cl)ccc21` [Example 22-1, 1′-({5-Chloro-1-[3-(ethylsulfonyl)propyl]-1H-indol-2-yl}methyl)spiro[cyclopropane-1,3′-pyrrolo[2,3-c]pyridin]-2′(1′H)-one] yielded an EC50 of 3 nM.

In turn, `CS(=N)(=O)CCn1c(CN2C(=O)C3(CC3)c3ccncc32)cc2cc(Cl)ccc21` (stereo not shown) [Example 14-2, 1′-({5-Chloro-1-[2-(S-methylsulfonimidoyl)ethyl]-1H-indol-2-yl}methyl)spiro[cyclopropane-1,3′-pyrrolo[2,3-c]pyridin]-2′(1′H)-one] registered an EC50 of 7 nM.

Consider `CS(=O)(=O)CCn1c(CN2C(=O)C3(CC3)c3ccncc32)cc2cc(C(F)(F)F)ccc21` [Example 1-10, 1′-({1-[2-(Methylsulfonyl)ethyl]-5-(trifluoromethyl)-1H-indol-2-yl}methyl)spiro[cyclopropane-1,3′-pyrrolo[2,3-c]pyridin]-2′(1′H)-one], for which a half-maximal effect (EC50) was put at 557 nM.

`O=C1N(Cc2cc3cc(Cl)cnc3n2CCC2CS(=O)(=O)C2)c2cnccc2C12CC2` [Example 12, 1′-({5-Chloro-1-[2-(1,1-dioxidothietan-3-yl)ethyl]-1H-pyrrolo[2,3-b]pyridin-2-yl}methyl)spiro[cyclopropane-1,3′-pyrrolo[2,3-c]pyridin]-2′(1′H)-one] came in with an EC50 of 29 nM.
